# PubChem BioAssay AID602156 (GNF / Scripps Winzeler lab, 2011)
# Active and inactive are the calls of the source. No rule for the calls is given here.
# Test system: P. yoelii liver stage in HepG2-A16-CD81EGFP, imaging
# Experiment: exo-erythrocytic parasite development inhibition – imaging, Malaria Box, P. yoelii, HepG2-A16-CD81EGFP, dose response (AID 602156);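 also: infected cells exposed to compound for 48 hours before fixation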
row,IC50,SMILES
1,93.7 nM,O=C1C2=C(Nc3ccccc3SC2c2ccccc2)c2ccccc21 (stereo unspecified)
2,169 nM,Cc1[nH]c2c(C)cccc2c(=O)c1CC=C(Cl)Cl
3,335 nM,Cc1cc(C(=O)Nc2cnn(Cc3ccc(Cl)cc3Cl)c2)no1
4,358 nM,O=[N+]([O-])c1cccc(C(Nc2nccs2)c2ccc3cccnc3c2O)c1 (stereo unspecified)
5,> 10000 nM (inactive),Cc1ccc(OCC(=O)Nc2cccc(-c3nc4ncccc4o3)c2)cc1C
6,383 nM,Clc1cccc(Nc2nc(NCc3ccco3)c3ccccc3n2)c1
7,> 10000 nM (inactive),COc1ccccc1Cc1nc2ccccc2nc1SCC(=O)Nc1cccc(C(F)(F)F)c1
8,119 nM,Cc1oc2c(c1C(=O)NCCCn1ccnc1)C(=O)c1ccccc1C2=O
9,> 9740 nM (inactive),COc1ccc2[nH]c(=O)c(CN(C(=S)Nc3ccccc3OC)C3CCCC3)cc2c1
10,544 nM,COc1cccc(C(=O)NC(c2ccccc2OC)c2cc(Cl)c3cccnc3c2O)c1 (stereo unspecified)
11,181 nM,O=C(Nc1c2ccccc2nc2ccccc12)c1cc(Cl)ccc1O
12,152 nM,Cc1cccc2c1[nH]c1nc(SCC(C)C)nnc12
13,> 9960 nM (inactive),COc1cccc(NC(=O)Cn2c(C)c(C#N)c3ccccc32)c1
14,352 nM,CCOC(=O)c1c[nH]c2ccc(C(C)C)cc2c1=O
15,11.5 nM,CCCCN(CCCC)[P+](N(CCCC)CCCC)(N(CCCC)CCCC)N(CCCC)CCCC
16,107 nM,c1ccc(-c2nn(-c3ccccc3)[n+](-c3ccccc3)n2)cc1
17,> 10000 nM (inactive),O=C(Cc1cccs1)N1CCN(c2ccccn2)CC1
18,> 10000 nM (inactive),Cc1ccc(S(=O)(=O)Nc2nc3n(n2)C(c2ccccc2)C=C(c2ccccc2)N3)cc1 (stereo unspecified)
19,> 10000 nM (inactive),CCCCCCN(C(=O)COc1ccccc1)C(CC)c1nc2ccccc2c(=O)n1-c1cccc(Cl)c1 (stereo unspecified)
20,14 nM,CC[n+]1c(/C=C/N(C)c2ccccc2)n(-c2ccccc2)c2ccc(-c3nc4ccccc4s3)cc21
21,114 nM,COc1ccc2nc(C)cc(Nc3ccc(Oc4ccc5ccccc5c4Cl)c(Cl)c3)c2c1

row,IC50,SMILES
1,38.1 nM,CCOC(=O)c1ccc(NC(=O)CSc2nc(NCc3ccccc3)c3ccccc3n2)cc1
2,22.3 nM,CC(c1nc2ccc(Cl)cc2c(=O)n1C)N1CCN(S(=O)(=O)c2cccc3ccccc23)CC1 (stereo unspecified)
3,279 nM,CCCc1c(C)[nH]c2ccccc2c1=O
4,492 nM,CC(c1nc2ccccc2c(=O)n1C)N1CCN(C(=O)C(C)(C)C)CC1 (stereo unspecified)
5,45.5 nM,CCC(C)(C)c1ccc(OCCCC[n+]2cccc(C)c2C)c(C(C)(C)CC)c1
6,96.2 nM,CCC(C)(C)c1ccc(OCCOCC[n+]2ccccc2)c(C(C)(C)CC)c1
7,449 nM,CCCCC(=O)NC(c1cccc([N+](=O)[O-])c1)c1ccc2cccnc2c1O (stereo unspecified)
8,> 10000 nM (inactive),COC(=O)C1=CNC=C(C(=O)OC)C1c1cc(OC)c(OC)c(OC)c1
9,> 8910 nM (inactive),CCCn1c(-c2cccc(Br)c2)nc2ccccc21
10,148 nM,Cc1ccc2cc(C)c(Nc3ccc(Cl)cc3)nc2c1
11,812 nM,O=C(Nc1ccc(-c2nc3ccc(NC(=O)c4ccc(Br)o4)cc3[nH]2)cc1)c1ccc(Br)o1
12,170 nM,CCN1C(=Cc2cc[n+](C)cc2)C=Cc2cc(C)ccc21
13,818 nM,CN(C)CCCN(Cc1cc2cc3c(cc2[nH]c1=O)OCO3)C(=S)Nc1cccc(Cl)c1
14,121 nM,COc1ccc(C2N(Cc3ccccc3)c3ccccc3N2Cc2ccccc2)cc1
15,306 nM,CCCc1nc2ccc(NC(=O)c3ccco3)cc2c(=O)n1Cc1ccc(-c2ccccc2)cc1
16,3640 nM,CC1CC(N(C(=O)c2ccc(Cl)cc2Cl)c2ccccc2)c2ccccc2N1C(=O)c1ccc(Cl)cc1 (stereo unspecified)
17,7.49 nM,CC[C@H]1CN2CCc3cc(OC)c(OC)cc3[C@@H]2C[C@@H]1C[C@H]1NCCc2cc(OC)c(OC)cc21
18,280 nM,CCCN(CCC)[P+](CCC)(c1ccc([P+](CCC)(N(CCC)CCC)N(CCC)CCC)cc1)N(CCC)CCC
19,74.8 nM,CC(C)NC(=O)c1cc(NC(=O)c2cccs2)ccc1N1CCc2ccccc2C1
20,438 nM,COc1ccc2nc(C)cc(Nc3ccc(Cl)c(Cl)c3)c2c1
